Laboratory results published in US6559157B2, “Dihydronaphthalene compounds” (Daiichi Pharmaceutical Co., Ltd., priority 1997, dated 2003).

Test system: Thromboxane A2 synthesis
Assay: Thromboxane A2 synthesis inhibiting activity test in citric acid-treated human whole blood
Assay type: cell-based
Details: inhibitor 50 μM, collagen-stimulated
Procedure: Measurement was done as follows according to the method of Rolf W. Hartmann et al. (Arch. Pharm. Pharm. Med. Chem., 329, 251, 1996). To 0.5 ml of citric acid-treated human whole blood were added 10 μl of an ethanol/K-Na-phosphate buffer solution (pH 7.4) containing a test compound, and the admixture was preincubated at 37° C. for 10 minutes. Dazoxybene hydrochloride (100 μM) was added to the blanks. Next, 50 μl of a collagen solution (final collagen concentration: 53.6 μg/ml) were added and incubation was continued at 37° C. for 10 minutes. The reaction was stopped by adding 0.4 ml of a 20% trichloroacetic acid solution in 0.6 M hydrochloric acid, and the admixture was centrifuged at 4400× g for 10 minutes. The resulting supernatant (0.5 ml) was fractionated and added to 0.5 ml of a 0.53% thiobarbituric acid solution (solvent: K-Na-phosphate buffer (pH 7.4)), and the admixture was heated for 70 minutes and then allowed to stand at room temperature for 30 minutes. This sample was measured by a fluorophotometer (excitation wave length: 533 nm, measurement wave length: 550 nm). Control samples without test compounds were tested in the same manner. The inhibiting activity (%) was calculated from the measurements using formula 1.
Enzyme source: Citric acid-treated human whole blood
Inhibitor concentration: 50 μM (inhibiting activity (%) was calculated)
Substrate concentration: 25 μM (progesterone)

Row | Compound | inhibition at 50 µM [%]
1 | COc1ccc2c(c1)CCC(Cc1ccncc1)=C2C [Example 21] | 43
2 | COc1cccc2c1CCC(Cc1ccncc1)=C2C [Example 20] | 60
3 | CC1=C(Cc2ccncc2)CCc2ccccc21 [Example 19] | 25

Molecular target: T1, Aromatase (Homo sapiens, UniProt P11511)
T1 construct: Aromatase was prepared from the microsome fraction of human placenta tissue; from tissue; host or cells: human placenta (microsome fraction)
T1 sequence (P11511 1-503): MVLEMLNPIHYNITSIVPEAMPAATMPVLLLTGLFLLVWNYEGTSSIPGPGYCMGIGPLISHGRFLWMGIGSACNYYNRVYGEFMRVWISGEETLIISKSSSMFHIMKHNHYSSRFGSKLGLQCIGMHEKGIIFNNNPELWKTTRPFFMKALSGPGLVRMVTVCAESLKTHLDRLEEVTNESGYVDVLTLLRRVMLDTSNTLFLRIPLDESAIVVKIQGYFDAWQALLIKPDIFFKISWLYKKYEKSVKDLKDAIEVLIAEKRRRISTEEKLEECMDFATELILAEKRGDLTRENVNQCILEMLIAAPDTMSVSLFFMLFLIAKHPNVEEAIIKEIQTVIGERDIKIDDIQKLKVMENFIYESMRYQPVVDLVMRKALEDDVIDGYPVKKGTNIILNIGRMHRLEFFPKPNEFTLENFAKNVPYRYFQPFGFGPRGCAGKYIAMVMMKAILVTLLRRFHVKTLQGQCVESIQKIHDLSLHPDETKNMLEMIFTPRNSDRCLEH
Assay: Aromatase inhibiting activity test, human placenta microsomes
Assay type: biochemical
Details: inhibitor 25 μM, testosterone 2.5 μM, NADPH 250 μM
Procedure: Measurement was done according to the method of Rolf W. Hartmann and Christine Batzl (J. Med. Chem., 29, 8, 1368, 1986).
Aromatase was prepared from the microsome fraction of human placenta tissue according to the method of Thompson and Siiteri (J. Biol. Chem., 249, 5346, 1974). Microsomes obtained were suspended in a phosphate buffer solution (0.05 M, pH 7.4) and stored at −30° C.
Enzyme activity was evaluated by measuring the amount of ^3H2O produced by [1β, 2β-^3H] testosterone during the reaction according to the methods of Foster A. B. et al. (Foster A. B. et al., J. Med. Chem., 26, 50, 1983) and Graves P. E. and Salhanick H. A. (Endocrinology, 105, 52, 1979) as follows. To a test tube containing 0.225 μCi of [1β, 2β-^3H]testosterone were added 5 μM unlabeled testosterone, 2 mM NADPH, 20 mM glucose-6-phosphate, 1EU of glucose-6-phosphate dehydrogenase, and a test compound (0-250 μM) dissolved in phosphate buffer (0.05 M, pH 7.4). The test compound was dissolved in ethanol and diluted with the phosphate buffer. The final ethanol concentration in a reaction solution of the control and the test compound was 2%. This test tube was preincubated in a water bath at 30° C. for 5 minutes. Next, 0.5 mg of the microsome enzyme was added to start the reaction. The total volume of the reaction solution was 0.5 ml. Water phase portions (100 μl) were taken 0, 7, 14, and 21 minutes after the start of the reaction and added to 200 μl of cold 1 mM HgCl2. To this were added 200 μl of a 2% dextran-treated activatd charcoal (DCC) suspension. The admixture was shaken for 20 minutes and then centrifuged at 1500× g for 5 minutes to isolate the steroid adsorbed on DCC. The amount of the produced ^3H2O in the fractionated supernatant was counted by a liquid scintillation counter. Control samples with no test compound were tested in the same manner. The inhibiting activity (%) was calculated from the measurement using calculation formula 1.
Enzyme source: Human placenta microsomes
Inhibitor concentration: 25 μM (inhibiting activity (%) was calculated)
Substrate concentration: 2.5 μM (testosterone)
NADPH concentration: 250 μM

Row | Compound | inhibition at 25 µM [%]
4 | CC1=C(Cc2cccnc2)CCc2ccccc21 [Example 15] | 56
5 | CC1=C(Cc2cccnc2)CCc2c(O)cccc21 [Example 23] | 60
6 | COc1ccc2c(c1)CCC(Cc1cccnc1)=C2C [Example 17] | 52
7 | CC1=C(Cc2cccnc2)CCc2cc(O)ccc21 [Example 24] | 37
8 | COc1cccc2c1CCC(Cc1cccnc1)=C2C [Example 16] | 50
9 | COc1ccc2c(c1)C(C)=C(Cc1cccnc1)CC2 [Example 18] | 61

Same assay, conditions: testosterone 2.5 μM, NADPH 250 μM

Row | Compound | IC50 [nM]
10 | CCC1=C(Cc2ccncc2)CCc2cc(OC)ccc21 [Example 38] | 790
11 | CCC1=C(Cc2ccncc2)CCc2ccc(OC)cc21 [Example 39] | 1300
12 | CCCC1=C(Cc2ccncc2)CCc2cc(OC)ccc21 [Example 44] | 860
13 | CC1=C(Cc2ccncc2)CCc2ccc(O)cc21 [Example 28] | 1200
14 | CC1=C(Cc2cccnc2)CCc2ccc(O)cc21 [Example 25] | 6400
15 | COc1ccc2c(c1)C=C(Cc1ccncc1)CC2 [Example 43] | 1700
16 | COc1cccc2c1CCC(Cc1ccncc1)=C2 [Example 41] | 950
17 | COc1ccc2c(c1)CCC(Cc1ccncc1)=C2C [Example 21] | 650
18 | COc1ccc2c(c1)C(C)=C(Cc1ccncc1)CC2 [Example 22] | 630
19 | CC1=C(Cc2ccncc2)CCc2c(O)cccc21 [Example 26] | 700
20 | Oc1ccc2c(c1)CCC(Cc1ccncc1)=C2 [Example 45] | 3500
21 | COc1cccc2c1CCC(Cc1ccncc1)=C2C [Example 20] | 380
22 | COc1ccc2c(c1)CCC(Cc1c[nH]cn1)=C2 [Example 46] | 1800
23 | COc1ccc2c(c1)CCC(Cc1ccncc1)=C2 [Example 42] | 790
24 | CCOc1ccc2c(c1)C(C)=C(Cc1c[nH]cn1)CC2 [Example 40] | 1200
25 | CC1=C(Cc2ccncc2)CCc2cc(O)ccc21 [Example 27] | 1300
26 | CCC1=C(Cc2ccncc2)CCc2c(OC)cccc21 [Example 37] | 950
27 | CC1=C(Cc2ccncc2)CCc2ccccc21 [Example 19] | 230

Test system: not given
Assay: not given
Details: not given

Row | Compound | melting point [°C]
28 | CCOc1ccc2c(c1)CCC(=Cc1c[nH]cn1)C2=O [Example 66] | 133.5 to 134.5
29 | CCOc1ccc2c(c1)C(=O)C(Cc1c[nH]cn1)CC2 (centres unmarked) [Example 69] | 176.5 to 178.5
30 | CCOc1ccc2c(c1)C(=O)C(=Cc1c[nH]cn1)CC2 [Example 68] | 139.5 to 141
31 | COc1cccc2c1CCC(Cc1c[nH]cn1)=C2C [Example 52] | 132.5 to 135
32 | CCC1=C(Cc2c[nH]cn2)CCc2ccc(OC)cc21 [Example 54] | 111.5 to 113.5
33 | CCC1=C(Cc2c[nH]cn2)CCc2cc(OC)ccc21 [Example 53] | 138 to 141.5
34 | COc1ccc2c(c1)C(c1ccccc1)=C(Cc1c[nH]cn1)CC2 [Example 59] | 198.5 to 199.5
35 | CCOc1cccc2c1CCC(Cc1c[nH]cn1)=C2C [Example 70] | 133.5 to 136
36 | CC(C)COc1ccc2c(c1)CCC(Cc1c[nH]cn1)C2=O (centres unmarked) [Example 77] | 114.5 to 115
37 | COc1ccc2c(c1)C=C(Cc1c[nH]cn1)CC2 [Example 63] | 155.5 to 156.5
38 | CCCC1=C(Cc2c[nH]cn2)CCc2cc(OC)ccc21 [Example 56] | 123.5 to 124.5
39 | CCCOc1ccc2c(c1)CCC(=Cc1c[nH]cn1)C2=O [Example 73] | 156.5 to 158
40 | CCOc1ccc2c(c1)CCC(Cc1c[nH]cn1)C2=O (centres unmarked) [Example 67] | 143.5 to 144.5
41 | COc1cccc2c1CCC(=Cc1c[nH]cn1)C2=O [Example 50] | 194 to 195
42 | CCCC1=C(Cc2c[nH]cn2)CCc2c(OC)cccc21 [Example 57] | 174.5 to 175.5
43 | COc1ccc2c(c1)CCC(Cc1c[nH]cn1)=C2c1ccccc1 [Example 58] | 201.5 to 202.5
44 | CCOc1cccc2c1CCC(Cc1c[nH]cn1)C2=O (centres unmarked) [Example 65] | 132 to 134
45 | COc1ccc2c(c1)CCC(Cc1c[nH]cn1)=C2Cc1ccccc1 [Example 61] | 122.5 to 123
46 | CCOc1ccc2c(c1)CCC(Cc1c[nH]cn1)=C2C [Example 71] | 126 to 127
47 | COc1cccc2c1CCC(Cc1c[nH]cn1)C2=O (centres unmarked) [Example 51] | 145.5 to 148
48 | CCCOc1ccc2c(c1)CCC(Cc1c[nH]cn1)C2=O (centres unmarked) [Example 74] | 134.5 to 136
49 | CCOc1ccc2c(c1)C(C)=C(Cc1c[nH]cn1)CC2.Cl [Example 72] | 170.5 to 171.5
50 | CCCOc1ccc2c(c1)CCC(Cc1c[nH]cn1)=C2C [Example 75] | 91.5 to 92
51 | COc1cccc2c1CCC(Cc1c[nH]cn1)=C2.Cl [Example 62] | 192.5 to 194.5
52 | CC1=C(Cc2c[nH]cn2)CCc2cc(OCC(C)C)ccc21 [Example 78] | 96 to 97
53 | CC(C)COc1ccc2c(c1)CCC(=Cc1c[nH]cn1)C2=O [Example 76] | 79 to 81.5
54 | COc1cccc2c1CCC(Cc1c[nH]cn1)=C2c1ccccc1 [Example 60] | 200 to 202
55 | CCOc1cccc2c1CCC(=Cc1c[nH]cn1)C2=O [Example 64] | 122 to 124
56 | CCC1=C(Cc2c[nH]cn2)CCc2c(OC)cccc21.Cl [Example 55] | 164 to 166
